# Experimental data reported in patent publication US20210246115A1 (Bioimics AB, priority 2017, published 2021).
# Where a name gives a salt, the structure may show the parent alone.
# Tests used:
# [1] = tested on: E. coli RNase P RNA, M1 RNA; assay: Inhibition of bacterial RNase P activity, IC50 determination (cleavage of pATSerUG by M1 RNA); assay type: biochemical; settings: NI: No inhibition
# [2] = tested on: Escherichia coli (ATCC25922); assay: MIC, broth microdilution (CLSI), Escherichia coli; settings: Escherichia coli, ATCC25922, read-out: E. coli ATCC 25922 MIC, Table XIII
# Protocol: Initial minimal inhibitory concentration (MIC) tests were made on two bacterial strains: • Escherichia coli (ATCC25922) • Staphylococcus aureus (ATCC25923).
# MIC values were determined using the standard broth microdilution procedure based on the guidelines by the Clinical and Laboratory Standards Institute (CLSI). Briefly, the compounds were dissolved in DMSO to 10 mM. They were diluted in cation-adjusted Mueller-Hinton broth (CAMHB) to four times the highest concentration tested. A serial two-fold dilution in CAMHB was done in microdilution plates. The inoculum of bacterial strain to be tested was prepared by making a suspension of colonies from an 18 to 24 hours old plate in CAMHB. The inoculum was diluted so that, after inoculation, each well contained approximately 5×10^5 CFU/mL. To a volume of 50 μl compound in CA 3 an equal volume of inoculum was added. The tray was sealed in a plastic bag and incubated at 35° C. for 16 to 20 hours. To aid in the detection of growth the dye resazurin was added to a final concentration 0.001% and incubated at room temperature for 1 h. Reduction of resazurin, and therefore bacterial growth, was seen as a change from blue to pink.
# [3] = tested on: Staphylococcus aureus (ATCC25923); assay: MIC, broth microdilution (CLSI), Staphylococcus aureus ATCC25923; settings: Staphylococcus aureus, ATCC25923, read-out: S. aureus ATCC 25923 MIC
Structure (SMILES),IC50 [1],MIC [2],MIC [3],IC50 ([1]; hydrochloride salt),RNase P Inhibition IC50 [1]
"NC1CCC(NC(=O)Cc2cn(CC3CCCCC3)c3ccc(-c4ccncc4)cc23)CC1 [Compound 255, N-((1S,4S)-4-aminocyclohexyl)-2-(1-(cyclohexylmethyl)-5-(pyridin-4-yl)-1H-indol-3-yl)acetamide hydrochloride salt]",33 µM,66 µg/mL,8 µg/mL,,
"Cc1cccc(C(CC(=O)NC2CCNCC2)c2cn(CC3CCCCC3)c3ccc(Br)cc23)c1.Cl (stereo not drawn) [Compound 121, 3-(5-bromo-1-(cyclohexylmethyl)-1H-indol-3-yl)-N-(piperidin-4-yl)-3-(m-tolyl) propanamide hydrochloride salt]",8 µM,256 µg/mL,8 µg/mL,,
"Cl.N[C@H]1CC[C@H](NC(=O)CC(c2cccc(F)c2)c2cn(CC3CCCCC3)c3ccccc23)CC1 (stereo partly drawn) [Compound 137, N-((1R,4R)-4-aminocyclohexyl)-3-(1-(cyclohexylmethyl)-1H-indol-3-yl)-3-(3-fluorophenyl) propanamide hydrochloride salt]",43 µM,32 µg/mL,8 µg/mL,,
"Cl.NC1CCC(NC(=O)Cc2cn(CC3CCCCC3)c3ccc(-c4ccccc4OC(F)(F)F)cc23)CC1 [Compound 234, N-((1S,4S)-4-aminocyclohexyl)-2-(1-(cyclohexylmethyl)-5-(2-(trifluoromethoxy)phenyl)-1H-indol-3-yl)acetamide hydrochloride salt]",7 µM,289 µg/mL,9 µg/mL,,
"Cc1cccc(-c2ccc3c(c2)c(CC(=O)NC2CCC(N)CC2)cn3C(=O)C2CCCCC2)c1.Cl [Compound 259, N-((1S,4S)-4-aminocyclohexyl)-2-(1-(cyclohexanecarbonyl)-5-(m-tolyl)-1H-indol-3-yl)acetamide hydrochloride salt]",20 µM,> 512 µg/mL,267 µg/mL,,
"Cc1cccc(C(CCNC2CCC(N)CC2)c2cn(CC3CCCCC3)c3ccc(Br)cc23)c1 [Compound 169, (1S,4S)-N1-(3-(5-bromo-1-(cyclohexylmethyl)-1H-indol-3-yl)-3-(m-tolyl)propyl)cyclohexane-1,4-diamine hydrochloride salt]",21 µM,5 µg/mL,2 µg/mL,,
"Cl.NC1CCC(C(=O)N2CCC(c3cn(CC4CCCCC4)c4ccccc34)CC2)CC1 (stereo not drawn) [Compound 200, (4-aminocyclohexyl) (4-(1-(cyclohexylmethyl)-1H-indol-3-yl)piperidin-1-yl)methanone hydrochloride salt]",5.9 µM,59 µg/mL,15 µg/mL,,
"Cc1cccc(C(CC(=O)NCCC2CCNCC2)c2cn(Cc3ccccc3)c3ccccc23)c1.Cl (stereo not drawn) [Compound 55, 3-(1-benzyl-1H-indol-3-yl)-N-(2-(piperidin-4-yl)ethyl)-3-(m-tolyl)propanamide hydrochloride salt]",,264 µg/mL,66 µg/mL,172 µM,
"Cc1cccc(C(CC(=O)N(C)C2CCNCC2)c2cn(CC3CCCCC3)c3ccccc23)c1.Cl (stereo not drawn) [Compound 279, 3-(1-(cyclohexylmethyl)-1H-indol-3-yl)-N-methyl-N-(piperidin-4-yl)-3-(m-tolyl)propanamide hydrochloride salt]",34 µM,65 µg/mL,8 µg/mL,,
"Cc1cccc(C(CC(=O)NC2CCC(N)CC2)c2cn(CC3CCNCC3)c3ccccc23)c1 [Compound 159, N-((1S,4S)-4-aminocyclohexyl)-3-(1-(piperidin-4-ylmethyl)-1H-indol-3-yl)-3-(m-tolyl)propanamide hydrochloride salt]",210 µM,> 512 µg/mL,279 µg/mL,,
"N[C@H]1CC[C@@H](NC(=O)c2coc(CN(CCc3c[nH]c4ccccc34)Cc3ccc(F)cc3)n2)CC1 [Compound 61, 2-(((2-(1H-indol-3-yl)ethyl)(4-fluorobenzyl)amino)methyl)-N-((1s,4s)-4-aminocyclohexyl) oxazole-4-carboxamide hydrochloride salt]",182 µM,251 µg/mL,63 µg/mL,,
"Cc1cccc(C(CC(=O)NC2CCC(C(=O)NO)CC2)c2cn(CC3CCCCC3)c3ccccc23)c1 [Compound 247, (1S,4S)-4-(3-(1-(cyclohexylmethyl)-1H-indol-3-yl)-3-(m-tolyl)propanamido)-N-hydroxycyclohexane-1-carboxamide hydrochloride salt]",,> 512 µg/mL,> 512 µg/mL,,Ni
"Cc1cccc(C(CC(=O)N2CCC(N)CC2)c2cn(CC3CCCCC3)c3ccccc23)c1.Cl (stereo not drawn) [Compound 179, 1-(4-aminopiperidin-1-yl)-3-(1-(cyclohexylmethyl)-1H-indol-3-yl)-3-(m-tolyl)propan-1-one hydrochloride salt]",12 µM,63 µg/mL,8 µg/mL,,
"Cc1cccc(C(CC(=O)N[C@H]2CC[C@H](N)CC2)c2cn(C(C)C)c3ccccc23)c1.Cl (stereo partly drawn) [Compound 154, N-((1R,4R)-4-aminocyclohexyl)-3-(1-isopropyl-1H-indol-3-yl)-3-(m-tolyl)propanamide hydrochloride salt]",1230 µM,256 µg/mL,128 µg/mL,,
"Cc1cccc(-c2ccc3c(c2)c(CC(=O)N[C@H]2CC[C@H](N)CC2)cn3CC2CCCCC2)c1.Cl [Compound 209, N-((1R,4R)-4-aminocyclohexyl)-2-(1-(cyclohexylmethyl)-5-(m-tolyl)-1H-indol-3-yl)acetamide hydrochloride salt]",5.4 µM,63 µg/mL,4 µg/mL,,
"Cc1cccc(C(CC(=O)NCCC2CCNCC2)c2cn(CC3CCCCC3)c3ccccc23)c1.Cl (stereo not drawn) [Compound 92, 3-(1-(cyclohexylmethyl)-1H-indol-3-yl)-N-(2-(piperidin-4-yl)ethyl)-3-(m-tolyl)propanamide hydrochloride salt]",45 µM,64 µg/mL,16 µg/mL,,
"Cc1cccc(C(CC(=O)NC2CCNCC2)c2cn(CC3CCOCC3)c3ccccc23)c1.Cl (stereo not drawn) [Compound 284, N-(piperidin-4-yl)-3-(1-((tetrahydro-2H-pyran-4-yl)methyl)-1H-indol-3-yl)-3-(m-tolyl)propanamide hydrochloride salt]",316 µM,> 512 µg/mL,> 512 µg/mL,,
"Cl.O=C(CC(c1cscn1)c1cn(CC2CCCCC2)c2ccccc12)NC1CCNCC1 (stereo not drawn) [Compound 101, 3-(1-(cyclohexylmethyl)-1H-indol-3-yl)-N-(piperidin-4-yl)-3-(thiazol-4-yl)propanamide hydrochloride salt]",387 µM,128 µg/mL,128 µg/mL,,
"Cc1cccc(C(CC(=O)NC2CCC(N)CC2)c2cn(CC34CC5CC(CC(C5)C3)C4)c3ccccc23)c1.Cl [Compound 223, 3-(1-(((1S,3S)-adamantan-1-yl)methyl)-1H-indol-3-yl)-N-((1s,4s)-4-aminocyclohexyl)-3-(m-tolyl)propanamide hydrochloride salt]",8 µM,> 512 µg/mL,2 µg/mL,,
"Cc1cccc(C(CC(=O)NC2CCC(N)CC2)c2cn(CC3CCCCC3)c3ccc(O)cc23)c1.Cl [Compound 165, N-((1S,4S)-4-aminocyclohexyl)-3-(1-(cyclohexylmethyl)-5-hydroxy-1H-indol-3-yl)-3-(m-tolyl)propanamide hydrochloride salt]",18 µM,67 µg/mL,34 µg/mL,,
"CC(C)C(CC(=O)N[C@H]1CC[C@H](N)CC1)c1cn(CC2CCCCC2)c2ccccc12.Cl (stereo partly drawn) [Compound 131, N-((1R,4R)-4-aminocyclohexyl)-3-(1-(cyclohexylmethyl)-1H-indol-3-yl)-4-methylpentanamide hydrochloride salt]",93 µM,128 µg/mL,32 µg/mL,,
"Cl.N[C@H]1CC[C@H](NC(=O)CCc2cc3ccccc3n2CC2CCCCC2)CC1 [Compound 276, N-((1R,4R)-4-aminocyclohexyl)-3-(1-(cyclohexylmethyl)-1H-indol-2-yl)propanamide hydrochloride salt]",43 µM,54 µg/mL,54 µg/mL,,
"Cl.N[C@H]1CC[C@H](NC(=O)CC(c2ccc(F)c(F)c2)c2cn(CC3CCCCC3)c3ccccc23)CC1 (stereo partly drawn) [Compound 134, N-((1R,4R)-4-aminocyclohexyl)-3-(1-(cyclohexylmethyl)-1H-indol-3-yl)-3-(3,4-difluorophenyl)propanamide hydrochloride salt]",19 µM,256 µg/mL,4 µg/mL,,
"Cc1cccc(-c2ccc3c(c2)c(C(=O)N[C@H]2CC[C@H](N)CC2)cn3CC2CCCCC2)c1.Cl [Compound 269, N-((1r,4r)-4-aminocyclohexyl)-1-(cyclohexylmethyl)-5-(m-tolyl)-1H-indole-3-carboxamide hydrochloride salt]",29 µM,> 512 µg/mL,8 µg/mL,,
"Cl.N[C@H]1CC[C@H](NC(=O)CCc2cn(CC3CCCCC3)c3ccccc23)CC1 [Compound 116, N-((1r,4r)-4-aminocyclohexyl)-3-(1-(cyclohexylmethyl)-1H-indol-3-yl)propanamide hydrochloride salt]",158 µM,128 µg/mL,128 µg/mL,,
"Cl.N[C@H]1CC[C@H](NC(=O)CCc2nn(CC3CCCCC3)c3ccc(Br)cc23)CC1 [Compound 270, N-((1r,4r)-4-aminocyclohexyl)-3-(5-bromo-1-(cyclohexylmethyl)-1H-indazol-3-yl)propanamide hydrochloride salt]",135 µM,127 µg/mL,64 µg/mL,,
"Cc1cccc(C(CC(=O)NC2CCNCC2)c2cn(CC3CCOCC3)c3ccc(Br)cc23)c1.Cl (stereo not drawn) [Compound 285, 3-(5-bromo-1-((tetrahydro-2H-pyran-4-yl)methyl)-1H-indol-3-yl)-N-(piperidin-4-yl)-3-(m-tolyl) propanamide hydrochloride salt]",74 µM,147 µg/mL,37 µg/mL,,
